Consider 13 compounds from paper PMC7724630, “Improving the Stability of EGFR Inhibitor Cobalt(III) Prodrugs” (Inorganic Chemistry, 2020).

For data set [1] the following is noted: cited from earlier work.
The subject of data set [2] is A431 cancer cells. Put plainly: MTT-based cytotoxicity assay under different O2 levels. The class given is cell-based, Human. The conditions noted are these: A431, 72 h.
For data set [3], the system named is EGFR phosphorylation at position Y1068 and ERK 1/2 in A431 cells. The data set can be described thus: Western blot of EGFR signaling (pEGFR Y1068, pERK 1/2) after EGF stimulation. The class given is cell-based, Human. Conditions: A431 serum-starved, 2 h drug, EGF 50 ng/mL 10 min, normoxic.
A short description of data set [4]: Cyclic voltammetry, cathodic peak potential Co(III)/Co(II). The class given is physicochemical. The conditions noted are these: 10 mM phosphate buffer pH 7.40, 0.1 M KCl, scan rate 30 mV/s, 1.5 mM complex. How it is done:
As the reduction process is crucial for the activation of cobalt(III)-based prodrug systems, the redox properties of the complexes were investigated to elucidate the effects of ligand methylation at different positions. Cyclic voltammetry measurements were performed in aqueous solution at pH 7.40 (10 mM phosphate buffer with 0.1 M KCl). […] Also, at a much higher scan speed of 1000 mV/s, the redox processes were still completely irreversible (Figure S5).
The compounds were dissolved in 10 mM phosphate buffer (pH 7.40), with 0.1 M KCl as the supporting electrolyte, to obtain a final concentration of 1.5 mM. Electrochemical experiments were conducted on an EG&G PARC 273A potentiostat/galvanostat with scan rates of 30 and 1000 mV/s at room temperature. Argon was bubbled through the solution before every measurement to remove oxygen. A three-electrode configuration cell was used with a glassy carbon electrode as the working electrode, which was polished before every measurement. The reference electrode was Ag/AgCl/KCl (3.5 M), and the auxiliary electrode was a platinum wire. Electrodes were conditioned regularly in 1 M H2SO4 for 5–10 cycles between voltage limits of −1.0 and 1.0 V at a scan rate of 100 mV/s. The system was calibrated with 1.5 mM K3[Fe(CN)6] for every experiment. Redox potentials measured relative to the Ag/AgCl/KCl (3.5 M) reference electrode were converted for potentials against NHE by the addition of 0.205 V. Measurements were repeated at least three times, and the mean values were calculated.

For data set [5], the system named is A431 cancer cells. Conditions: cited from earlier work.
Data set [6] in a line: Overall stability constants of binary and ternary cobalt(II) complexes by pH-potentiometry. The class given is physicochemical. The conditions noted are these: for fraction of ligand coordinated to cobalt(II): 1:2:1 cobalt(II)-acac-ligand system, computed from stability constants; for log β [Co(II)A2B]0 ternary complex / log β [Co(II)AB2]+ ternary complex / log β [Co(II)AB]+ ternary complex: A = acac, B = MeEn or PhEn. How it is done:
Following the determination of the stability constants for the binary complexes (Table 2), overall stability constants for the mixed-ligand complexes formed in the cobalt(II)–acac–MeEn and cobalt(II)–acac–PhEn ternary systems were calculated on the basis of pH-potentiometric titrations. Three types of complexes were formed, [CoAB]^+, [CoA2B], and [CoAB2]^+, where “A” denotes acac and “B” refers to MeEn or PhEn. Concentration distribution curves in Figure 5 were computed using the stability constants of the 1:2:1 cobalt(II)–acac–PhEn composition that corresponds to the reduced form of Co(II)(acac)2L^0. […] For the 1:2:1 cobalt(II)–acac–MeEn system, ∼11% are still coordinated to cobalt(II) at pH 7.4 (Figure S6). However, it has to be mentioned that these calculations were performed for 1 mM cobalt(II) (where the titrations were performed), and the amount of the intact ternary complex further decreases with lower concentrations [e.g., in the latter system at pH 7.4 and 0.1 mM cobalt(II), the coordinated MeEn fraction is only ∼2%].
(§1) For determination of the proton dissociation (Ka) and formation constants (β) pH-potentiometric measurements were carried out at 25 ± 0.1 °C and an ionic strength (I) of 0.10 M (KCl) to keep the activity coefficients constant. A carbonate-free KOH solution (0.10 M) was used for titrations. The exact concentrations of HCl and KOH were determined by pH-potentiometric titrations. A Metrohm-combined electrode (type 6.0234.100) connected to an Orion 710A pH-meter and a computer-controlled Methrom 665 Dosimat buret (increment, 1 μL; precision, 2 μL) were used for the pH-potentiometric measurements. […] The determined average water ionization constant (pKw = 13.76 ± 0.01) corresponds well to the literature data.[37] Titration points included in the calculations gave a reproducibility within 0.005 pH unit. Titrations were performed in the pH range of 2.0–11.5, and the initial volume of the samples was 10 mL. Binary systems contained 1 or 2 mM ligand, and metal:ligand ratios of 1:1, 1:2, 1:3, and 1:4 were used. In the ternary systems, the cobalt(II) concentration was 1 mM and the two types of ligands (A, acac, and B, MeEn, or PhEn) were varied as follows: 1:1:1, 1:2:1, 1:1:2, and 1:2:2 Co(II):A:B. The samples were degassed by bubbling purified argon through them for 10 min prior to the measurements, and argon was also passed over the solutions during the titrations.
The stoichiometry of the complexes and overall stability constants were established by the computer program Hyperquad2013.[53] For the general equilibrium β(MpLqHr) is defined as [drawing 2] 1 where M denotes the cobalt(II) ion and L the completely deprotonated ligand. The calculations were performed as reported in our previous work.[54]

A short description of data set [7]: Proton dissociation constants by pH-potentiometric titration. The class given is physicochemical. Conditions: pH-potentiometry, 25.0 °C, I = 0.1 M (KCl).
Text: After reductive activation of the cobalt(III) prodrugs, it is essential to investigate whether the formed cobalt(II) complexes indeed can release the coordinated targeting ligand. For this reason, we selected two ternary systems as models to study the potential liberation of the (N,N) ligand from the mixed-ligand cobalt complex upon reduction. Thus, the aqueous stability of several cobalt(II) complexes was investigated under strictly anaerobic conditions. Due to the limited water solubility of cobalt(II) chloride complexes with L, model ligands with better solubility, namely, MeEn and PhEn, were used. First, deprotonation processes of the acetlyacetone (Hacac) and the fully protonated MeEn and PhEn ligands were followed at pH 2.0–11.5 (Table 2).
as §1

Data set [8] has as its target EGFR (ErbB1) (Homo sapiens, UniProt P00533). The data set can be described thus: Cell-free kinase inhibition assay (ZLYTE, Select Screen). The class given is biochemical. The conditions noted are these: 10 μM ATP (10-fold excess of ATP), 1% DMSO.
For data set [9] the following is noted: I = 0.1 M NaClO4; cited from earlier work.
[10] abbreviates: pH 7.0, NAD+/NADH or GSSG/GSH couple.
The mark [11] stands for this setting: 25.0 °C, I = 0.1 M (KCl), anaerobic.
[12] abbreviates: Homo sapiens, A-431, 1% O2, read-out: IC50 hypoxia with 1% O2.
The mark [13] stands for this setting: Homo sapiens, A-431, 21% O2, read-out: IC50 normoxia.

“And” between values parts separate entries of the source, which are not always exact repeats. Equal values may be shown once. Read-outs that look alike come from different tables or passages of the source. Marks after values point to notes of the source that are not given here.

Chain of EGFR (ErbB1) (P00533 25-1210): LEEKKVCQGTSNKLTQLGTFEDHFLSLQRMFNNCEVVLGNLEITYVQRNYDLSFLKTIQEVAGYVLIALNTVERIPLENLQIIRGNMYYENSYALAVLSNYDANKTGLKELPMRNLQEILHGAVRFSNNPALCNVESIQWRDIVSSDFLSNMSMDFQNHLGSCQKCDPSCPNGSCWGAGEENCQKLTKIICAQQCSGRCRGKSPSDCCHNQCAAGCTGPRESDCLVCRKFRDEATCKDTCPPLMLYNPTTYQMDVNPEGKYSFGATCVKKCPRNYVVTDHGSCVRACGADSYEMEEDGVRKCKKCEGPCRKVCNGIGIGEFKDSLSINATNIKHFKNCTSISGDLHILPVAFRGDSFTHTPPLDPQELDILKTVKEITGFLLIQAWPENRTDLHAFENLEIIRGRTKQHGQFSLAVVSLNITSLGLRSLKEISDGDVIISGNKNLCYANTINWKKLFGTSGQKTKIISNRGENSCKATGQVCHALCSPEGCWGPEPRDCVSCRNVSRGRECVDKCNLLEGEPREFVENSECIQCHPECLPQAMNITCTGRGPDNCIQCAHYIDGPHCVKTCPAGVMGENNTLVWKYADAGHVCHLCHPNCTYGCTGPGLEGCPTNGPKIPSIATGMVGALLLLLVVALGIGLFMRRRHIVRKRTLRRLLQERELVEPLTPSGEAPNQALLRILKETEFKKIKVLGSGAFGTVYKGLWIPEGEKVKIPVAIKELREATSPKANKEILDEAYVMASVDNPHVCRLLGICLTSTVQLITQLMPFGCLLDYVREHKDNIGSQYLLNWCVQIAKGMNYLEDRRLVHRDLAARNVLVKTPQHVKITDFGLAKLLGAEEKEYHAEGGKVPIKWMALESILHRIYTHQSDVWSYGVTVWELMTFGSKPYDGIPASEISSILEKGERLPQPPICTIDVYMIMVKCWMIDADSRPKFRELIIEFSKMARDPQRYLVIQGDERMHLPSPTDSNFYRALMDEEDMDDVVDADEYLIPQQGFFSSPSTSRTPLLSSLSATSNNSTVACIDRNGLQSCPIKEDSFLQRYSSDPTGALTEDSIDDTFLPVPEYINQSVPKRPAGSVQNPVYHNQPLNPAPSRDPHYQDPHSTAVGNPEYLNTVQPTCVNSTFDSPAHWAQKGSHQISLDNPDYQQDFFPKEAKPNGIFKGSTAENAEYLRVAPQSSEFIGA

Take `O=C1O[C@H]([C@@H](O)CO)C(O)=C1O` [AA, ascorbic acid]: in [1], the “formal potential, higher values suggested by recent literature” value is on record as 0.35–0.50 V. The formal potential in [1] (dehydro-L-ascorbate/AA at pH 7.0) is given as 0.06 V.

For `CC(=O)[C-](C)C(C)=O.CC(=O)[C-](C)C(C)=O.CNCCNc1ccc2ncnc(Nc3cccc(Br)c3)c2c1.[Cl-].[Co+3]` [Co(Meacac)2MeL^+, Bis(3-methyl-2,4-pentanedionato) N^4-(3-Bromophenyl)-N^6-[2-(methylamino)ethyl]quinazoline-4,6-diamine Cobalt(III) Chloride], the “increase in cytotoxicity at 0.1% O2 compared to normoxic conditions” value in [2] stood at 2.9 fold. In addition, the IC50 in data set [2] (0.1% O2, read-out: IC50 hypoxia with 0.1% O2) was 19.9 ± 1 µM; in [2] (1% O2, read-out: IC50 hypoxia with 1% O2) it was ~32 µM and 32 µM; in data set [2] (5% O2, read-out: IC50 hypoxia with 5% O2), 55.2 ± 1.4 µM; in data set [2] (21% O2, read-out: IC50 normoxia) it was 58.6 ± 4.4 µM. Moreover, the “EGFR-inhibitory potential (pEGFR, pERK 1/2)” value in [3] is “distinctly weakened EGFR-inhibitory potential”. Moreover, the “cathodic peak potential (Ec) vs NHE” value in [4] was found to be 17 mV.

As for `[Cl-].[Cl-].[Co+2]` [CoCl2], in data set [5], the cytotoxic activity result is recorded as “No significant cytotoxic activity”.

On to `N[C@@H](CCC(=O)N[C@@H](CS)C(=O)NCC(=O)O)C(=O)O` [GSH, Glutathione], for which, in data set [1] (setting [10]), the formal potential is reported as −0.24 V.

Take `CNCCN` [MeEn, N-methylethylenediamine]: the “fraction of ligand coordinated to cobalt(II)” value (“fraction of ligand coordinated” for short) in data set [6] (pH 7.4, 0.1 mM cobalt(II)) is listed as around 2%. In addition, the “fraction of ligand coordinated” value in data set [6] (pH 7.4, 1 mM cobalt(II)) was around 11%. Further, in [6] (setting [11]), the “log β [Co(II)L2] binary complex” value stood at 9.15 ± 0.02, the “log β [Co(II)L3] binary complex” value came to 12.94 ± 0.04 and the “log β [Co(II)L] binary complex” value was 5.26 ± 0.01. In data set [6] (25.0 °C, I = 0.1 M (KCl)), the “log β [Co(II)A2B]0 ternary complex” value is 12.73 ± 0.09, the “log β [Co(II)AB2]+ ternary complex” value came out at 13.20 ± 0.12 and the “log β [Co(II)AB]+ ternary complex” value is on record as 9.82 ± 0.05. Further, in data set [7], the pKa1 was 7.04 ± 0.02 and the pKa2 is recorded as 9.98 ± 0.01.

With `CNCCNc1ccc2ncnc(Nc3cccc(Br)c3)c2c1.Cl.Cl` [MeL, N^4-(3-Bromophenyl)-N^6-[2-(methylamino)ethyl]quinazoline-4,6-diamine Dihydrochloride], the “anticancer activity relative to L” value in [2] is recorded as “approximately twice as effective as L”. Further, the IC50 in [2] (Homo sapiens, A-431, 0.1% O2, read-out: IC50 hypoxia with 0.1% O2) was 5.4 ± 0.8 µM; in data set [2] (setting [12]), 5.5 ± 0.4 µM; in [2] (Homo sapiens, A-431, 5% O2, read-out: IC50 hypoxia with 5% O2) it was 8.7 ± 1.2 µM; in data set [2] (setting [13]), 6.9 ± 1.8 µM; in data set [8], 0.00041 µM. For the same compound, the “EGFR-inhibitory potential (pEGFR, pERK 1/2)” value in data set [3] is recorded as “potent EGFR inhibition”.

`NC(=O)C1=CN([C@@H]2O[C@H](COP(=O)(O)OP(=O)(O)OC[C@H]3O[C@@H](n4cnc5c(N)ncnc54)[C@H](O)[C@@H]3O)[C@@H](O)[C@H]2O)C=CC1` [NADH, reduced nicotinamide adenine dinucleotide]: the formal potential in [1] (setting [10]) was −0.32 V.

Turning to `NCCNc1ccccc1` [PhEn, N-phenylethylenediamine], the “fraction of ligand coordinated” value in [6] (pH 7.4, 1 mM cobalt(II)) was below 1%. Besides, in data set [6] (setting [11]), the “log β [Co(II)L2] binary complex” value stood at 6.75 ± 0.09 and the “log β [Co(II)L] binary complex” value stood at 3.63 ± 0.05. Besides, in [6] (25.0 °C, I = 0.1 M (KCl)), the “log β [Co(II)A2B]0 ternary complex” value was found to be 12.08 ± 0.09, the “log β [Co(II)AB2]+ ternary complex” value was found to be 11.29 ± 0.13 and the “log β [Co(II)AB]+ ternary complex” value is recorded as 8.03 ± 0.15. In addition, in [7], the pKa1 is given as 1.85 ± 0.01 ^c and the pKa2 is 9.34 ± 0.01 ^c.

For `CC(=O)C=C(C)[O-].CC(=O)C=C(C)[O-].NCCN.[Co+2]` [[Co(II)(acac)2en]], the cytotoxic activity entry in data set [5] (A431 cells, both normoxia and hypoxia) is “No significant cytotoxic activity”.

On to `CC(=O)CC(C)=O` [acac, acetylacetone], for which the pKa in data set [9] is 8.82. Further, in [6] (setting [11]), the “log β [Co(II)L2] binary complex” value is 8.66 ± 0.05 ^b and the “log β [Co(II)L] binary complex” value is reported as 5.05 ± 0.02 ^b. Also, the pKa1 in [7] is 8.80 ± 0.01 ^b.

As for `C#Cc1cccc(Nc2ncnc3cc(OCCOC)c(OCCOC)cc23)c1` [erlotinib, reference compound], the IC50 was 14.4 ± 4 µM in data set [2] (setting [12]) and 13.3 ± 4.7 µM in data set [2] (setting [13]).

As for “Bis(2,4-pentanedionato) (Methyl-1,2-ethanediamine) Cobalt(III) Hexafluorophosphate [Co(acac)2MeEn^+]”, the “cathodic peak potential (Ec) vs NHE” value in [4] was -152 mV.

As to “Bis(3-methyl-2,4-pentanedionato) (Methyl-1,2-ethanediamine) Cobalt(III) Hexafluorophosphate [Co(Meacac)2MeEn^+]”, the “cathodic peak potential (Ec) vs NHE” value in data set [4] is listed as -200 mV.
